Laboratory results published in US7871794B2, “Enhanced cell-free synthesis of active proteins containing disulfide bonds” (The Board of Trustees of the Leland Stanford Junior …, priority 2007, dated 2011).

Legend:
reduction of GSSG = experiment: Assay for the reduction of oxidized glutathione in PANOx-SP cell-free reactions; format: biochemical, E. coli
Description: For determining the effect of pH and IAM concentration on GSSG stabilization, the pH of S30 extracts was adjusted by first adding a small volume of 10 M KOH or HCl to the bottom of an Eppendorf tube. A much larger volume of S30 extract was then rapidly mixed with the small volume of acid or base. The pH was measured with a standardized micro-pH probe (Model 9810BN, Orion, Beverly, Mass.). Several 15 μL PANOx-SP reactions supplemented with 5 mM GSSG and the pK7CAT plasmid were prepared at each pH and IAM concentration. Single reactions were terminated at 15, 38, 60, 90, 120, and 180 minutes for each condition, and the concentration of SH groups was measured as described below.
Assay for the Reduction of Oxidized Glutathione. The reduction of oxidized glutathione was measured by monitoring the increase in concentration of sulfhydryl groups over time. The entire 15 μL in vitro synthesis reaction was diluted with an equal volume of 10% trichloroacetic acid and centrifuged for 10 minutes at 12,000×g and 4° C. Ten microliters of the supernatant was added to wells of a 96-well microtiter plate. To each well, 90 μL of 1 M Tris-HCl (pH 7.8) with 0.44 mg/mL DTNB (5,5′-dithiobis-2-nitrobenzoic acid, TCI America) was added. After 3 minutes at room temperature, the absorbance at 412 nm was measured and the concentration of free thiols determined by comparison to a standard curve determined with GSH solutions of known concentration.

[1] = target: T1, thioredoxin reductase (TrxB) (Escherichia coli, UniProt P0A9P4); experiment: Assay for thioredoxin reductase activity after IAM treatment at various pHs; format: biochemical, E. coli; settings: 7 mM IAM, 30 minutes at room temperature
T1 construct: made in house; host or cells: cell-free (in vitro) synthesis reaction, E. coli extract
T1 sequence (P0A9P4 whole entry): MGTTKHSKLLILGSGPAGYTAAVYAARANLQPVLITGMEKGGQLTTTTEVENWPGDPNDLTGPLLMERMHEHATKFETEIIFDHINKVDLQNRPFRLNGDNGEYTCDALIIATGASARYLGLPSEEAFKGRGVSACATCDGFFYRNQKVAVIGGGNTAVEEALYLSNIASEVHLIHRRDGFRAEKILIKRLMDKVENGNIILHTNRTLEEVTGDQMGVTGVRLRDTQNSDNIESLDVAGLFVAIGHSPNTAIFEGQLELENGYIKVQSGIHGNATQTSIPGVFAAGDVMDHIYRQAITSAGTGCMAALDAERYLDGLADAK
Description: Assay for Thioredoxin Reductase Activity. Thioredoxin reductase was produced in in vitro synthesis reactions as described previously (Knapp and Swartz (2004) FEBS Lett 559:66-70). The pHs of aliquots of the unpurified reaction product were adjusted to the desired values with small volumes of concentrated KOH or HCl. These aliquots were then mixed with a small volume of IAM concentrate to obtain a final IAM concentration of 7 mM. These samples were incubated at room temperature for 30 minutes, and then the thioredoxin reductase activity of the samples was measured. The activity assay for thioredoxin reductase contained the following components: 50 mM NaH2PO4 pH 7.6, 1.5 mM EDTA, 10 mM glucose 6-phosphate, 200 μM DTNB, 300 μM NADPH, 3 μM E. coli thioredoxin (EMD Biosciences; Darmstadt, Germany), and 0.2 U glucose 6-phosphate dehydrogenase (Sigma). Approximately 500 ng of thioredoxin reductase was added to 1 mL of the assay mixture and the rate of increase in absorbance at 412 nm was measured for 90 seconds at 37° C. DTNB produces two molecules of nitrothiobenzoate when it is reduced. The extinction coefficient of nitrothiobenzoate (13,600 M^−1 cm^−1) was used to calculate the rate of reaction.

How did the “effect on sulfhydryl groups at IAM concentrations greater than 50 μM” value (reduction of GSSG; KGK10 extract) turn out when `NC(=O)CI` [IAM, iodoacetamide] was run?
The value was “slow rate of oxidation of sulfhydryls”.

What about the “IAM concentration sufficient to eliminate the reduction of GSSG” value (reduction of GSSG; KGK10 extract, IAM treatment near physiological pH) of the same molecule?
The value was 50 µM.

What about the “IAM needed to stabilize the oxidized glutathione buffer, KGK10 extract versus KC6 extract” value (reduction of GSSG; in vitro synthesis reactions containing 5 mM GSSG) of the same molecule?
Its value is “Twenty-fold less”.

And the “pH at which IAM inactivation of TrxB begins to lose its effectiveness” value [1]?
The value was ~5.8.
